{
  "source": "ChEMBL document CHEMBL3132794",
  "about": "“Imidazolium salts as antifungal agents: activity against emerging yeast pathogens, without human leukocyte toxicity” (Medchemcomm, 2013)",
  "key": {"[1]": {"assay": "Toxicity against human Leukocyte cells assessed induction of structural damage by microscopy; further: test concentration or dose not given here", "type": "cell-based"}, "[2]": {"assay": "Toxicity against human Leukocyte cells assessed as reduction in cell viability by trypan blue exclusion assay; further: test concentration or dose not given here", "type": "cell-based"}, "[3]": {"assay": "Genotoxicity in human Leukocyte cells assessed as induction of DNA single strand breaks by single gel electrophoresis based alkaline comet assay; further: test concentration or dose not given here", "type": "toxicity, cell-based"}, "Nakaseomyces glabratus [4]": {"test_system": "Nakaseomyces glabratus", "assay": "Antifungal activity against Candida glabrata clinical isolates by broth microdilution method", "type": "functional"}, "Candida tropicalis [5]": {"test_system": "Candida tropicalis", "assay": "Antifungal activity against Candida tropicalis clinical isolates by broth microdilution method", "type": "functional"}, "Trichosporon asahii [6]": {"test_system": "Trichosporon asahii", "assay": "Antifungal activity against Trichosporon asahii clinical isolates by broth microdilution method", "type": "functional"}, "Candida parapsilosis [7]": {"test_system": "Candida parapsilosis", "assay": "Antifungal activity against Candida parapsilosis clinical isolates by broth microdilution method", "type": "functional", "conditions": "Lodderomyces parapsilosis"}, "Nakaseomyces glabratus [8]": {"test_system": "Nakaseomyces glabratus", "assay": "Inhibition of ergosterol biosynthesis in Candida glabrata clinical isolates assessed as reduction in mean cellular ergosterol content by spectrophotometry; further: test concentration or dose not given here", "type": "functional"}, "Candida tropicalis [9]": {"test_system": "Candida tropicalis", "assay": "Inhibition of ergosterol biosynthesis in Candida tropicalis clinical isolates assessed as reduction in mean cellular ergosterol content by spectrophotometry; further: test concentration or dose not given here", "type": "functional"}, "Candida parapsilosis [10]": {"test_system": "Candida parapsilosis", "assay": "Inhibition of ergosterol biosynthesis in Candida parapsilosis clinical isolates assessed as reduction in mean cellular ergosterol content by spectrophotometry; further: test concentration or dose not given here", "type": "functional"}, "Trichosporon asahii [11]": {"test_system": "Trichosporon asahii", "assay": "Inhibition of ergosterol biosynthesis in Trichosporon asahii clinical isolates assessed as reduction in mean cellular ergosterol content by spectrophotometry; further: test concentration or dose not given here", "type": "functional"}},
  "data": [
    {"compound": "CCCCCCCCCCn1cc[n+](C)c1.[Cl-]", "values": [
      {"measurement": "Activity", "setting": "[1]", "value": "Non-toxic"},
      {"measurement": "Activity", "setting": "[2]", "value": "Non-toxic"},
      {"measurement": "Activity", "setting": "[3]", "value": "Non-toxic"},
      {"measurement": "MIC", "setting": "Nakaseomyces glabratus [4]", "value": 7.8, "unit": "µg/mL"},
      {"measurement": "MIC50", "setting": "Nakaseomyces glabratus [4]", "value": 15.6, "unit": "µg/mL"},
      {"measurement": "MIC", "setting": "Candida tropicalis [5]", "value": 0.9, "unit": "µg/mL"},
      {"measurement": "MIC50", "setting": "Candida tropicalis [5]", "value": 1.9, "unit": "µg/mL"},
      {"measurement": "MIC", "setting": "Trichosporon asahii [6]", "value": 7.8, "unit": "µg/mL"},
      {"measurement": "MIC50", "setting": "Trichosporon asahii [6]", "value": 31.2, "unit": "µg/mL"},
      {"measurement": "MIC", "setting": "Candida parapsilosis [7]", "value": 1.9, "unit": "µg/mL"},
      {"measurement": "MIC50", "setting": "Candida parapsilosis [7]", "value": 7.8, "unit": "µg/mL"}
    ]},
    {"compound": "CCCCCCCCCCCCCCCCn1cc[n+](C)c1.F[P-](F)(F)(F)(F)F", "values": [
      {"measurement": "Activity", "setting": "[1]", "value": "Non-toxic"},
      {"measurement": "Activity", "setting": "[2]", "value": "Non-toxic"},
      {"measurement": "Activity", "setting": "[3]", "value": "Non-toxic"},
      {"measurement": "MIC", "setting": "Nakaseomyces glabratus [4]", "value": 1.9, "unit": "µg/mL"},
      {"measurement": "MIC50", "setting": "Nakaseomyces glabratus [4]", "value": 3.9, "unit": "µg/mL"},
      {"measurement": "MIC", "setting": "Candida tropicalis [5]", "value": 0.9, "unit": "µg/mL"},
      {"measurement": "MIC50", "setting": "Candida tropicalis [5]", "value": 1.9, "unit": "µg/mL"},
      {"measurement": "MIC", "setting": "Trichosporon asahii [6]", "value": 15.6, "unit": "µg/mL"},
      {"measurement": "MIC50", "setting": "Trichosporon asahii [6]", "value": 15.6, "unit": "µg/mL"},
      {"measurement": "MIC", "setting": "Candida parapsilosis [7]", "value": 0.9, "unit": "µg/mL"},
      {"measurement": "MIC50", "setting": "Candida parapsilosis [7]", "value": 7.8, "unit": "µg/mL"}
    ]},
    {"compound": "CCCCCCCCCCn1cc[n+](C)c1.CS(=O)(=O)[O-]", "values": [
      {"measurement": "Activity", "setting": "[1]", "value": "Non-toxic"},
      {"measurement": "Activity", "setting": "[2]", "value": "Non-toxic"},
      {"measurement": "Activity", "setting": "[3]", "value": "Non-toxic"},
      {"measurement": "MIC", "setting": "Nakaseomyces glabratus [4]", "value": 15.6, "unit": "µg/mL"},
      {"measurement": "MIC50", "setting": "Nakaseomyces glabratus [4]", "value": 31.2, "unit": "µg/mL"},
      {"measurement": "MIC", "setting": "Candida tropicalis [5]", "value": 1.9, "unit": "µg/mL"},
      {"measurement": "MIC50", "setting": "Candida tropicalis [5]", "value": 1.9, "unit": "µg/mL"},
      {"measurement": "MIC", "setting": "Trichosporon asahii [6]", "value": 31.2, "unit": "µg/mL"},
      {"measurement": "MIC50", "setting": "Trichosporon asahii [6]", "value": 62.5, "unit": "µg/mL"},
      {"measurement": "MIC", "setting": "Candida parapsilosis [7]", "value": 1.9, "unit": "µg/mL"},
      {"measurement": "MIC50", "setting": "Candida parapsilosis [7]", "value": 7.8, "unit": "µg/mL"}
    ]},
    {"compound": "CCCCCCCCCCCCCCCCn1cc[n+](C)c1.F[B-](F)(F)F", "values": [
      {"measurement": "Activity", "setting": "[1]", "value": "Non-toxic"},
      {"measurement": "Activity", "setting": "[2]", "value": "Non-toxic"},
      {"measurement": "Activity", "setting": "[3]", "value": "Non-toxic"},
      {"measurement": "inhibition (INH)", "setting": "Nakaseomyces glabratus [8]", "value": 33, "unit": "%"},
      {"measurement": "inhibition (INH)", "setting": "Candida tropicalis [9]", "value": 33, "unit": "%"},
      {"measurement": "inhibition (INH)", "setting": "Candida parapsilosis [10]", "value": 33, "unit": "%"},
      {"measurement": "inhibition (INH)", "setting": "Trichosporon asahii [11]", "value": 33, "unit": "%"},
      {"measurement": "MIC", "setting": "Nakaseomyces glabratus [4]", "value": 0.9, "unit": "µg/mL"},
      {"measurement": "MIC50", "setting": "Nakaseomyces glabratus [4]", "value": 0.9, "unit": "µg/mL"},
      {"measurement": "MIC", "setting": "Candida tropicalis [5]", "value": 0.9, "unit": "µg/mL"},
      {"measurement": "MIC50", "setting": "Candida tropicalis [5]", "value": 0.9, "unit": "µg/mL"},
      {"measurement": "MIC", "setting": "Trichosporon asahii [6]", "value": 1.95, "unit": "µg/mL"},
      {"measurement": "MIC50", "setting": "Trichosporon asahii [6]", "value": 3.9, "unit": "µg/mL"},
      {"measurement": "MIC", "setting": "Candida parapsilosis [7]", "value": 0.4, "unit": "µg/mL"},
      {"measurement": "MIC50", "setting": "Candida parapsilosis [7]", "value": 3.9, "unit": "µg/mL"}
    ]},
    {"compound": "CCCCCCCCCCCCCCn1cc[n+](C)c1.O=S(=O)([N-]S(=O)(=O)C(F)(F)F)C(F)(F)F", "values": [
      {"measurement": "Activity", "setting": "[1]", "value": "Non-toxic"},
      {"measurement": "Activity", "setting": "[2]", "value": "Non-toxic"},
      {"measurement": "Activity", "setting": "[3]", "value": "Non-toxic"},
      {"measurement": "MIC", "setting": "Nakaseomyces glabratus [4]", "value": 3.9, "unit": "µg/mL"},
      {"measurement": "MIC50", "setting": "Nakaseomyces glabratus [4]", "value": 15.6, "unit": "µg/mL"},
      {"measurement": "MIC", "setting": "Candida tropicalis [5]", "value": 0.9, "unit": "µg/mL"},
      {"measurement": "MIC50", "setting": "Candida tropicalis [5]", "value": 0.9, "unit": "µg/mL"},
      {"measurement": "MIC", "setting": "Trichosporon asahii [6]", "value": 31.2, "unit": "µg/mL"},
      {"measurement": "MIC50", "setting": "Trichosporon asahii [6]", "value": 62.5, "unit": "µg/mL"},
      {"measurement": "MIC", "setting": "Candida parapsilosis [7]", "value": 0.9, "unit": "µg/mL"},
      {"measurement": "MIC50", "setting": "Candida parapsilosis [7]", "value": 0.9, "unit": "µg/mL"}
    ]},
    {"compound": "CCCCCCCCCCCCCCCCn1cc[n+](C)c1.[Cl-]", "values": [
      {"measurement": "Activity", "setting": "[1]", "value": "Non-toxic"},
      {"measurement": "Activity", "setting": "[2]", "value": "Non-toxic"},
      {"measurement": "Activity", "setting": "[3]", "value": "Non-toxic"},
      {"measurement": "MIC", "setting": "Nakaseomyces glabratus [4]", "value": 0.9, "unit": "µg/mL"},
      {"measurement": "MIC50", "setting": "Nakaseomyces glabratus [4]", "value": 0.9, "unit": "µg/mL"},
      {"measurement": "MIC", "setting": "Candida tropicalis [5]", "value": 0.9, "unit": "µg/mL"},
      {"measurement": "MIC50", "setting": "Candida tropicalis [5]", "value": 0.9, "unit": "µg/mL"},
      {"measurement": "MIC", "setting": "Trichosporon asahii [6]", "value": 0.9, "unit": "µg/mL"},
      {"measurement": "MIC50", "setting": "Trichosporon asahii [6]", "value": 0.9, "unit": "µg/mL"},
      {"measurement": "MIC", "setting": "Candida parapsilosis [7]", "value": 0.9, "unit": "µg/mL"},
      {"measurement": "MIC50", "setting": "Candida parapsilosis [7]", "value": 0.9, "unit": "µg/mL"}
    ]},
    {"compound": "OC(Cn1cncn1)(Cn1cncn1)c1ccc(F)cc1F", "note": "[FLUCONAZOLE]", "values": [
      {"measurement": "MIC", "setting": "Nakaseomyces glabratus [4]", "value": 4, "unit": "µg/mL"},
      {"measurement": "MIC50", "setting": "Nakaseomyces glabratus [4]", "value": 8, "unit": "µg/mL"},
      {"measurement": "MIC", "setting": "Candida tropicalis [5]", "value": 2, "unit": "µg/mL"},
      {"measurement": "MIC50", "setting": "Candida tropicalis [5]", "value": 8, "unit": "µg/mL"},
      {"measurement": "MIC", "setting": "Trichosporon asahii [6]", "value": 4, "unit": "µg/mL"},
      {"measurement": "MIC50", "setting": "Trichosporon asahii [6]", "value": 8, "unit": "µg/mL"},
      {"measurement": "MIC", "setting": "Candida parapsilosis [7]", "value": 1, "unit": "µg/mL"},
      {"measurement": "MIC50", "setting": "Candida parapsilosis [7]", "value": 1, "unit": "µg/mL"}
    ]},
    {"compound": "CC(=O)N1CCN(c2ccc(OCC3COC(Cn4ccnc4)(c4ccc(Cl)cc4Cl)O3)cc2)CC1", "note": "(stereo unspecified) [KETOCONAZOLE]", "values": [
      {"measurement": "MIC", "setting": "Nakaseomyces glabratus [4]", "value": 0.5, "unit": "µg/mL"},
      {"measurement": "MIC50", "setting": "Nakaseomyces glabratus [4]", "value": 4, "unit": "µg/mL"},
      {"measurement": "MIC", "setting": "Candida tropicalis [5]", "value": 0.25, "unit": "µg/mL"},
      {"measurement": "MIC50", "setting": "Candida tropicalis [5]", "value": 4, "unit": "µg/mL"},
      {"measurement": "MIC", "setting": "Trichosporon asahii [6]", "value": 0.25, "unit": "µg/mL"},
      {"measurement": "MIC50", "setting": "Trichosporon asahii [6]", "value": 4, "unit": "µg/mL"},
      {"measurement": "MIC", "setting": "Candida parapsilosis [7]", "value": 0.125, "unit": "µg/mL"},
      {"measurement": "MIC50", "setting": "Candida parapsilosis [7]", "value": 1, "unit": "µg/mL"}
    ]}
  ]
}
